Reference: ChEMBL document CHEMBL1201862, “PubChem BioAssay data set” (2004)
The source made the active and inactive calls.

Experiments:
[1] = Luminescence Cell-Based Dose Response to Identify Activators of 5'UTR Stem-Loop Driven Prion Protein mRNA Translation in H4-C Neuroglioblastoma Cells. [Related pubchem assays: 1829 (Project Summary), 1814 (Primary HTS)]; format: functional
[2] = Luminescence Cell-Based Dose Response HTS to Identify Activators of Luciferase Translation or Activity in H4 […] Cells. [Related pubchem assays: 1829 (Project Summary), 1814 (Primary HTS)]; format: functional
[3] = Luminescence Cell-Based Dose Response to Identify Activators of Luciferase Translation or Activity in H4-C Neuroglioblastoma Cells. [Related pubchem assays: 1829 (Project Summary), 1814 (Primary HTS)]; format: functional
[4] = Luminescence Cell-Based Dose Confirmation to Identify Activators of 5'UTR Stem-Loop Driven Alpha-Synuclein mRNA Translation in H4 Neuroglioblastoma Cells. [Related pubchem assays: 1829 (Project Summary), 1814 (Primary HTS)]; format: functional
[5] = A High Throughput Confirmatory Assay used to Identify Novel Compounds that Inhibit Mycobacterium Tuberculosis in the absence of Glycerol.; format: functional
[6] = biological target: T1, Oxysterols receptor LXR-beta (Homo sapiens, UniProt P55055); format: functional, cell-based;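 note: Cell-based luminescence dose-response assay of agonist activity at LXR, run as a confirmatory counterscreen to a daf-12 agonist screen; agonist potency from rising luciferase signal of a Gal4-LXR reporter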
T1 sequence (P55055 whole entry): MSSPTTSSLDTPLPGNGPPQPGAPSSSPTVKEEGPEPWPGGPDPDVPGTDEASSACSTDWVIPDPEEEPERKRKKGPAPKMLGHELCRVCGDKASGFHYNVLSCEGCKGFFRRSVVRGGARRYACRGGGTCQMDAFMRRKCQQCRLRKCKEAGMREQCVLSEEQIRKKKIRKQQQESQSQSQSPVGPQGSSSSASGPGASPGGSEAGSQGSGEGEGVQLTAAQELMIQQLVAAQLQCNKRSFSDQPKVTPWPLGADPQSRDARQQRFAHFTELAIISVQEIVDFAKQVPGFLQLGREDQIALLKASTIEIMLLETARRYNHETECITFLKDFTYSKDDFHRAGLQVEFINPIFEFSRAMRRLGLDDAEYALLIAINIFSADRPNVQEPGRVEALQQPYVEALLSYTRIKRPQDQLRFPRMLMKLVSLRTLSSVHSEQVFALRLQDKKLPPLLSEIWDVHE

[7] = cells
[8] = biological target: Bifunctional protein GlmU (Mycobacterium tuberculosis, UniProt P9WMN3); assay: Inhibitors of Mycobacterial Glucosamine-1-phosphate acetyl transferase (GlmU). Secondary screen.; design: species or system Mycobacterium tuberculosis H37Rv
Chain of Bifunctional protein GlmU (P9WMN3 whole entry, the tested form may be a part): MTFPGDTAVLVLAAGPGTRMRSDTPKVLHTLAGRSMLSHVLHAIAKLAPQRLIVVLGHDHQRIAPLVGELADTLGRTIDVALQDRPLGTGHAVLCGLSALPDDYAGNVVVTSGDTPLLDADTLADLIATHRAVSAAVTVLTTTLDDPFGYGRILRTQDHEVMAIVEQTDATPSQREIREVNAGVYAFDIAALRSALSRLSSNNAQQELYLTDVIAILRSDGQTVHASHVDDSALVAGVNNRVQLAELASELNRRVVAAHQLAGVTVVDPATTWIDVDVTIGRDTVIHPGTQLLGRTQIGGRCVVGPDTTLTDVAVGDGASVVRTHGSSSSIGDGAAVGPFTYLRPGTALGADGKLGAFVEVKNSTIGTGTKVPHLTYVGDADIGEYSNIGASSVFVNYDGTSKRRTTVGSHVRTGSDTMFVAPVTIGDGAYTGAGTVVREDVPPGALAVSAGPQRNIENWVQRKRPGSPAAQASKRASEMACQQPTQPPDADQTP

[9] = biological target: T2, Carboxy-terminal domain RNA polymerase II polypeptide A small phosphatase 1 (Homo sapiens, UniProt Q9GZU7); assay: inhibitors of CTDSP1, concentration-response testing, biochemical assay, absorbance-based, actives from ultra-high-throughput screening (AID 540297); format: functional
T2 sequence (Q9GZU7 whole entry): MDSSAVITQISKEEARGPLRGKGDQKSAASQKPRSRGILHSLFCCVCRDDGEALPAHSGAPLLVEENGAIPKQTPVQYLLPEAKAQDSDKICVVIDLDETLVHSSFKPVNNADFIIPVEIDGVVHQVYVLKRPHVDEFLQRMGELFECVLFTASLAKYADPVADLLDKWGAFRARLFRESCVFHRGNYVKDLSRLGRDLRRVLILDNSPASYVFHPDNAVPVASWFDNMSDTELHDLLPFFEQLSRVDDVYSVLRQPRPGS

[10] = biological target: T3, Caspase-6 (Homo sapiens, UniProt P55212); assay: human caspase-6 inhibitors, dose response, biochemical, VEID-R110 fluorescence, cherry-pick (AID 720632)
T3 sequence (P55212 whole entry): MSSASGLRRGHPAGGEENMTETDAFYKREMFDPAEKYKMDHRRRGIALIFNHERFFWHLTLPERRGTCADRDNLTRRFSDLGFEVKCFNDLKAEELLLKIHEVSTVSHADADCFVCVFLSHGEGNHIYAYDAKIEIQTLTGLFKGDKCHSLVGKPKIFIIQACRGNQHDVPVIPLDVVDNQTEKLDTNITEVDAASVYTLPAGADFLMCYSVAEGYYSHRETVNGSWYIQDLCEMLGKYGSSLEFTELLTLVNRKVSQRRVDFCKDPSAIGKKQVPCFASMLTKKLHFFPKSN

[11] = biological target: Mitogen-activated protein kinase 10 (Homo sapiens, UniProt P53779); assay: Dose response biochemical screening assay for inhibitors of c-Jun N-Terminal Kinase 3 (JNK3). [Related pubchem assays: 746 ]
Chain of Mitogen-activated protein kinase 10 (P53779 whole entry): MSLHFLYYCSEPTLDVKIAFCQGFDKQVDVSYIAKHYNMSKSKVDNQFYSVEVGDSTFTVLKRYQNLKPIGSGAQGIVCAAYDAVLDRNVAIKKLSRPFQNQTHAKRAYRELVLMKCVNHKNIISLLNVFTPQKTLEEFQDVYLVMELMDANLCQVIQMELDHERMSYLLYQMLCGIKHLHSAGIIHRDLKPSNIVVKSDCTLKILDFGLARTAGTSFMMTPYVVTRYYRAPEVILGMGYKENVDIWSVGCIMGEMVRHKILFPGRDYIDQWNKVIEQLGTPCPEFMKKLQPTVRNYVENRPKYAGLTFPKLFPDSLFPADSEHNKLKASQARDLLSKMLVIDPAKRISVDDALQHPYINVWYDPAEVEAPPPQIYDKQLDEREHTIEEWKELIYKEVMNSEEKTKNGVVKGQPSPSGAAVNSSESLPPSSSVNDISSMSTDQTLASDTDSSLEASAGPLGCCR

[12] = Luminescence-based cell-based high throughput dose response assay to identify activators of the DAF-12 from the parasite S. stercoralis (ssDAF-12).; format: functional
[13] = biological target: T1, Oxysterols receptor LXR-beta; assay: LXR agonists, Gal4 luciferase reporter, dose response, counter-screen for ssDAF-12 agonist project, cell-based, luminescence, HEK293, S. stercoralis campaign (AID 720737); format: functional; details: read-out: IC50 (the source's name)
[14] = inhibitors of intracellular T. cruzi replication, confirmation, NIH3T3 host cells, beta-gal luminescence (AID 2044); format: functional, cell-based;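 note: intracellular parasites grown in NIH/3T3 mouse fibroblasts as host cells; luminescent beta-galactosidase reporter signal from transgenic T. cruzi replicating inside host cells; inhibitors lower the luminescence signal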
[15] = cytotoxicity toward NIH3T3 fibroblasts, dose response, counter-screen, cell-based, ATP luminescence, mouse fibroblasts (AID 2010); format: functional;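 note: cells exposed to compound for about 90 hours before reading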
[16] = cells; remark: listed apart in the source
[17] = biological target: Glutathione-S-transferase (Schistosoma japonicum, UniProt Q26513); assay: biotin-GST/anti-GST TR-FRET signal inhibitors, dose response, artefact control for Vif-APOBEC3G degradation inhibitor project, biochemical (AID 1117362); format: functional
Chain of Glutathione-S-transferase (Q26513 whole entry): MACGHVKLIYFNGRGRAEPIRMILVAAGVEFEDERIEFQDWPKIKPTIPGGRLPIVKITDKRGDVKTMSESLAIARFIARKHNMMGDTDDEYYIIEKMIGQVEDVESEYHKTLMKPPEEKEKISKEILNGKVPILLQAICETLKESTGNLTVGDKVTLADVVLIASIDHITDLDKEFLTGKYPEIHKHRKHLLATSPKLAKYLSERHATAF

[18] = biological target: Estrogen receptor beta (Homo sapiens, UniProt Q92731);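 note: recombinant ER-beta bound to coactivator SRC1 peptide in presence of estradiol agonist; inhibitors block coactivator peptide binding and lower the FRET signal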
Chain of Estrogen receptor beta (Q92731 whole entry): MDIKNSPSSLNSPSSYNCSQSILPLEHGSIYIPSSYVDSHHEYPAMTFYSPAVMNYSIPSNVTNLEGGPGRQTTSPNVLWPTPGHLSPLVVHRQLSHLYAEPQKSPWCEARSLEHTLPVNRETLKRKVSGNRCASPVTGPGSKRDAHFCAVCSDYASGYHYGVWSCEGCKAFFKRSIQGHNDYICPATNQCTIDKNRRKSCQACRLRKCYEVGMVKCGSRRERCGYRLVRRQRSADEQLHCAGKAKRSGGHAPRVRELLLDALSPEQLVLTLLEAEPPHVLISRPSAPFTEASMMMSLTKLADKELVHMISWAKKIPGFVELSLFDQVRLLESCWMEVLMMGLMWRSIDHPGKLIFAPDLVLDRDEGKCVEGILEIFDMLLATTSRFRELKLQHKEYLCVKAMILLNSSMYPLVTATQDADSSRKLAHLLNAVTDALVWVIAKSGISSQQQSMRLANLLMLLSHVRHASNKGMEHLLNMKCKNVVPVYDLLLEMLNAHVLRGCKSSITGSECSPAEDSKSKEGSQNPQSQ

[19] = biological target: Glucose-6-phosphate 1-dehydrogenase (Homo sapiens, UniProt P11413); assay: human G6PD enzyme inhibitors, dose response, selectivity assay for P. falciparum G6PD inhibitor project, biochemical, fluorescence (AID 504792); format: functional
Chain of Glucose-6-phosphate 1-dehydrogenase (P11413 whole entry): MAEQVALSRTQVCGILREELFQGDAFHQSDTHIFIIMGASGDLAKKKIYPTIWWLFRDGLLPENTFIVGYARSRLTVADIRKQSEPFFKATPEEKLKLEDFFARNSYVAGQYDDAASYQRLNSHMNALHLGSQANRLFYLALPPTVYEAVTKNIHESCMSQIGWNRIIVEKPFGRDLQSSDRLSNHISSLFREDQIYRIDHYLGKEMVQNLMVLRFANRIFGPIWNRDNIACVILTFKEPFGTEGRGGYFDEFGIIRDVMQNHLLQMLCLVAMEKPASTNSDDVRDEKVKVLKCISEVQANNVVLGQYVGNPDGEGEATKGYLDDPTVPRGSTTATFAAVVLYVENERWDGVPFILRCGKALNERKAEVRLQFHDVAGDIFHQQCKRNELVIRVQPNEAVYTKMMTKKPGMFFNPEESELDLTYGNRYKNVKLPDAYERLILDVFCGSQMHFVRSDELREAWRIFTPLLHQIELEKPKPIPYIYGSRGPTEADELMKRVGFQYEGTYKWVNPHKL

[20] = THP-1 cell cytotoxicity, dose response, cytotoxicity control for Vif-APOBEC3G degradation inhibitor project, THP-1 cells (AID 1117359); format: functional; details: Human immunodeficiency virus 1, THP-1
[21] = inhibitors of HIV Env-driven cell fusion, dose response, cherry-pick (AID 652057); format: functional, cell-based
[22] = CEM21 lymphoblast cell cytotoxicity, dose response, cytotoxicity control for viral fusion inhibitor project, CellTiter-Glo luminescence, cherry-picked (AID 652042); format: functional, cell-based;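 note: potency for signal decrease meaning cytotoxicity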
[23] = ZM109 Env clade C HIV-1 fusion inhibitors, dose response, HeLa effector, CEM target cells, luciferase, cherry-pick (AID 652058); format: functional, cell-based
[24] = off-target signal loss in HeLa-CEM21 co-culture – HeLa F-luc CTL cells, cherry-picked, counter-screen for HIV-1 Env fusion inhibitor project, dose response (AID 652040); format: functional, cell-based;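 note: potency for signal decrease marking cytotoxic or nonspecific inhibition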
[25] = inhibitors of clade B AD8 Env fusion, dose response, cell-based, cherry-pick (AID 652062); format: functional;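 note: luciferase signal from cell-cell fusion driven by HIV-1 clade B AD8 Env; potency is for inhibitors of fusion seen as a drop in luminescence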
[26] = biological target: T4, Aminopeptidase N (Plasmodium falciparum FcB1/Columbia, UniProt O96935); assay: P. falciparum M1AAP inhibitors, biochemical, fluorogenic H-Leu-NHMec substrate, 1536-well (AID 1445); design: species or system Plasmodium falciparum 3D7, 3D7
T4 sequence (O96935 whole entry): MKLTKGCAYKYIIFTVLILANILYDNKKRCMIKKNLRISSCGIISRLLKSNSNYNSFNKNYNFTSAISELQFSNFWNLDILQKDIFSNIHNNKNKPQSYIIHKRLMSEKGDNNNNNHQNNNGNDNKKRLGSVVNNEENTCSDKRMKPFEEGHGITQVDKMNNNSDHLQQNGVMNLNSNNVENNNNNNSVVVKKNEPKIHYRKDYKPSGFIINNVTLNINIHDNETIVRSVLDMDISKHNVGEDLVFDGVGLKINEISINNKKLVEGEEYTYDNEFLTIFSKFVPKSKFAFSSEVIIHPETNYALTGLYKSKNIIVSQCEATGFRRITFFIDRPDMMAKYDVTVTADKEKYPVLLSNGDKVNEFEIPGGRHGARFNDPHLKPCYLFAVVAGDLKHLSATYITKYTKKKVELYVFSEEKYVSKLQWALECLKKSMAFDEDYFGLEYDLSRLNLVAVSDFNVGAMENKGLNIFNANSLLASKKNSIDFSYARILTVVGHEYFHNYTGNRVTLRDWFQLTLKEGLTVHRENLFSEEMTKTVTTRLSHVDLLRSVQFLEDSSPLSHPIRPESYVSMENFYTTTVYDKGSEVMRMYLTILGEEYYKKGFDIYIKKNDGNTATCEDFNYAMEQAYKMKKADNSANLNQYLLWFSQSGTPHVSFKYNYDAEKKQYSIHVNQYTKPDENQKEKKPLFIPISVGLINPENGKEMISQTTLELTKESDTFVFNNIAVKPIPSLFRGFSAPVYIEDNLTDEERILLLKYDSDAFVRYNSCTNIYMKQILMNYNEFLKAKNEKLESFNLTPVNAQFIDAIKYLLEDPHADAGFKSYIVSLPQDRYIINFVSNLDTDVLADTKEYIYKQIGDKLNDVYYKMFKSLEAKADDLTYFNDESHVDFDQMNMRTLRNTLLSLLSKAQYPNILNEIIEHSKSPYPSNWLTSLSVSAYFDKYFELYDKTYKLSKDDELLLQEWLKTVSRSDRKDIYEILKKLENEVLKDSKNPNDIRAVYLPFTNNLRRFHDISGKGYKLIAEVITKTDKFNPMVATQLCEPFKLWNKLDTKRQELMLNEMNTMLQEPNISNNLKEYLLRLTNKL

[27] = biological target: Estrogen receptor (Homo sapiens, UniProt P03372);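 note: potency for inhibiting coactivator peptide recruitment to the receptor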
Chain of Estrogen receptor (P03372 whole entry): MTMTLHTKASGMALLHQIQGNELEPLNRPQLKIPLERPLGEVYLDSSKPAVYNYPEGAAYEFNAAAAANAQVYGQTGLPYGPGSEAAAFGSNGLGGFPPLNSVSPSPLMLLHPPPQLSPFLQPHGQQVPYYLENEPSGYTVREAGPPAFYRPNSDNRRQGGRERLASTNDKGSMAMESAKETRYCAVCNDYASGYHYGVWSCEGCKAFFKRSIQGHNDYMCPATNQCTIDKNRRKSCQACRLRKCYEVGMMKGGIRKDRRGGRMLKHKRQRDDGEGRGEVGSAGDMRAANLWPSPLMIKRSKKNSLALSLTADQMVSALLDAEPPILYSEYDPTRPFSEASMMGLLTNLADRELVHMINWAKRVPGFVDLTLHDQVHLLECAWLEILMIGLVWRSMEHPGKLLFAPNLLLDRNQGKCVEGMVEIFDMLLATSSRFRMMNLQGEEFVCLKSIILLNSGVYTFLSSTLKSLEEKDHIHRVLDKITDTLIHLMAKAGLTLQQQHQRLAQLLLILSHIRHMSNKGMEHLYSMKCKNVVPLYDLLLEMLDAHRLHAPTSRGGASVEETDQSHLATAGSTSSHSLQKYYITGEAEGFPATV

[28] = Concentration-dependent survival of SW480 colon cancer line, luminescence detection with CellTiter-Glo, half-maximal inhibitory concentration (AID 1117338); format: functional
[29] = RKO cell viability reduction, dose response, CellTiter-Glo luminescence (AID 1117322); format: functional
[30] = cytotoxicity toward HCT116 cells – cell-based, CellTiter-Glo luminescence, IC50, dose response (AID 1117332); format: functional; details: HCT-116
[31] = SNU-C1 cell viability reduction, dose response, CellTiter-Glo luminescence (AID 1117323); format: functional, cell-based
[32] = cytotoxicity toward Colo320 cells – cell-based, CellTiter-Glo luminescence, IC50, dose response (AID 1117334); format: functional; details: COLO 320
[33] = cytotoxicity toward HT-29 cells – cell-based, CellTiter-Glo luminescence, IC50, dose response (AID 1117330); format: functional
[34] = CellTiter-Glo luminescent dose response of DLD-1 viability loss (AID 1117352); format: functional
[35] = HCT116 cell viability decrease, GSK3B pretreatment – CellTiter-Glo, IC50, dose response (AID 1117339); format: functional; details: HCT-116

SMILES: COc1ccc(-c2ccc(-c3nnn(CC(C)=O)n3)cc2)cc1
- EC50 [1]: 0.521 µM (active)
- EC50 [2]: < 0.1 µM (inconclusive)
- EC50 [3]: 0.257 µM (active)
- EC50 [4]: 0.364 µM (active)

SMILES: Cc1ccc(NC(=O)c2sccc2-n2cccc2)c(C)c1
- IC50 [5]: > 100 µM (active)

SMILES: Cc1occc1C(=O)N=Nc1c(O)n(C)c2ccccc12
- EC50 [2]: 0.526 µM (active)
- EC50 [6]: > 67.5 µM (inactive)
- EC50 [7]: > 67.5 µM (inactive)

SMILES: O=C(O)c1ccc(N2C(=O)c3cccc4c(C(=O)O)ccc(c34)C2=O)cc1
- IC50 [8]: 98.9 µM (active)
- IC50 [9]: 3.53 µM (active)
- AC50 [10]: 7.17 µM (active)

SMILES: O=C(CCn1cnc2ccccc2c1=O)Nc1ccc(S(=O)(=O)N2CCCC2)cc1
- IC50 [11]: 38.2 µM (not active)

SMILES: COc1ccc(C(=N)NOC(=O)c2cccs2)cc1
- IC50 [12]: > 67.6 µM (inactive)
- EC50 [13]: > 67.6 µM (inactive)

SMILES: Cc1ccc2c(CN3CCN(CCO)CC3)cc(=O)oc2c1C
- EC50 [14]: < 0.1 µM (active)
- EC50 [15]: > 60 µM (not active)
- EC50 [16]: 0.019 µM (active)

SMILES: Cn1nccc1NC(=O)Nc1ccc(Cl)cc1
- IC50 [17]: 93.4 µM (active)

SMILES: COc1ccc(N2CC(C(=O)O)CC2=O)cc1 (stereo unspecified)
- IC50 [18]: > 50 µM (not active)

SMILES: COc1cccc(C=Nc2cc(C(C)C)c(O)cc2C)c1O
- IC50 [19]: 33.9 µM (inactive)
- CC50 [20]: 27.2 µM (active)

SMILES: Fc1cccc(Cc2c(-c3ccco3)nc3c4ccccc4ccn23)c1
- AC50 [21]: 1.12 µM (active)
- AC50 [22]: 44 µM (active)
- AC50 [23]: 1.2 µM (active)
- AC50 [24]: 0.907 µM (active)
- AC50 [25]: 5.56 µM (active)
- IC50 [12]: > 67.5 µM (inactive)
- EC50 [13]: > 67.5 µM (inactive)

SMILES: O=C1CC(c2ccco2)CC(O)=C1/C=N/c1cc(Cl)ccc1O (stereo unspecified)
- IC50 [26]: 5.58 µM (active)
- IC50 [27]: 43.8 µM (not active)

SMILES: CSc1nsc(N/N=C/c2ccc3c(c2)OCO3)c1C#N
- EC50 [1]: 0.314 µM (active)
- EC50 [2]: < 0.1 µM (inconclusive)
- EC50 [3]: 0.303 µM (active)
- EC50 [4]: 0.415 µM (active)

SMILES: O=S1(=O)CCC(/N=C/c2ccc(-c3ccc(Cl)cc3)o2)C1 (stereo unspecified)
- IC50 [5]: > 100 µM (active)

SMILES: O=C(NC(=O)c1c(F)cccc1F)Nc1ccc(Cl)c(Oc2ncc(C(F)(F)F)cc2Cl)c1 [FLUAZURON]
- IC50 [28]: > 20 µM (inactive)
- IC50 [29]: 11.8 µM (inactive)
- IC50 [30]: > 20 µM (inactive)
- IC50 [31]: > 20 µM (inactive)
- IC50 [32]: > 20 µM (inactive)
- IC50 [33]: > 20 µM (inactive)
- IC50 [34]: > 20 µM (inactive)
- IC50 [35]: 10.6 µM (inactive)

SMILES: CC(=O)N(CC(O)CN(C(C)=O)c1c(I)c(C(=O)NCC(O)CO)c(I)c(C(=O)NCC(O)CO)c1I)c1c(I)c(C(=O)NCC(O)CO)c(I)c(C(=O)NCC(O)CO)c1I (stereo unspecified) [IODIXANOL]
- IC50 [28]: > 20 µM (inactive)
- IC50 [29]: > 20 µM (inactive)
- IC50 [30]: > 20 µM (inactive)
- IC50 [31]: > 20 µM (inactive)
- IC50 [32]: > 20 µM (inactive)
- IC50 [33]: > 20 µM (inactive)
- IC50 [34]: > 20 µM (inactive)
- IC50 [35]: > 20 µM (inactive)
